Test results taken from PubChem BioAssay (NCI).
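Cells were grown in 96-well plates and exposed to each compound for 48 hours at five concentrations; endpoints were interpolated linearly between bracketing concentrations, or set to the highest concentration if not reached. GI50: concentration for 50% inhibition of growth. TGI denotes the concentration required for complete inhibition of growth.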

Columns and labels:
Assay in all cases: NCI anticancer screen, dose series, 48 h
MALME-3M melanoma = tested on: MALME-3M melanoma
LOX IMVI melanoma = tested on: LOX IMVI melanoma
UACC-257 melanoma = tested on: UACC-257 melanoma
COLO 205 colon = tested on: COLO 205 colon
NCI-H226 lung = tested on: NCI-H226 lung
SF-295 CNS = tested on: SF-295 CNS
HCC-2998 colon = tested on: HCC-2998 colon
SK-OV-3 ovarian = tested on: SK-OV-3 ovarian
HS 578T breast = tested on: HS 578T breast
HT29 colon = tested on: HT29 colon
SK-MEL-2 melanoma = tested on: SK-MEL-2 melanoma
NCI-H23 lung = tested on: NCI-H23 lung
EKVX NSCLC = tested on: EKVX NSCLC
SK-MEL-28 melanoma = tested on: SK-MEL-28 melanoma
OVCAR-5 ovarian = tested on: OVCAR-5 ovarian
786-0 renal = tested on: 786-0 renal
PC-3 prostate = tested on: PC-3 prostate
NCI-H460 lung = tested on: NCI-H460 lung
TK-10 renal = tested on: TK-10 renal
RXF 393 renal = tested on: RXF 393 renal
OVCAR-4 ovarian = tested on: OVCAR-4 ovarian
SK-MEL-5 melanoma = tested on: SK-MEL-5 melanoma
NCI/ADR-RES ovarian = tested on: NCI/ADR-RES ovarian
K-562 leukemia = tested on: K-562 leukemia
CCRF-CEM leukemia = tested on: CCRF-CEM leukemia
T-47D breast = tested on: T-47D breast
SN12C renal = tested on: SN12C renal
SF-268 CNS = tested on: SF-268 CNS
MCF7 breast = tested on: MCF7 breast

Cc1ccc2nc3ccccc3c(NCc3ccccc3)c2c1
GI50 (MALME-3M melanoma): 4.25 µM
TGI (MALME-3M melanoma): 11 µM
GI50 (LOX IMVI melanoma): 1.67 µM
TGI (LOX IMVI melanoma): 6.15 µM
GI50 (UACC-257 melanoma): 7.77 µM
TGI (UACC-257 melanoma): 17.8 µM
GI50 (COLO 205 colon): 1.47 µM
TGI (COLO 205 colon): 6.46 µM
GI50 (NCI-H226 lung): 3.59 µM
TGI (NCI-H226 lung): 12 µM
GI50 (SF-295 CNS): 2.28 µM
TGI (SF-295 CNS): 8.58 µM
GI50 (HCC-2998 colon): 1.86 µM
TGI (HCC-2998 colon): 6.86 µM
GI50 (SK-OV-3 ovarian): 6.05 µM
TGI (SK-OV-3 ovarian): 12.9 µM
GI50 (HS 578T breast): 5.14 µM
TGI (HS 578T breast): 15.4 µM
GI50 (HT29 colon): 1.54 µM
TGI (HT29 colon): 7.43 µM
GI50 (SK-MEL-2 melanoma): 7.79 µM
TGI (SK-MEL-2 melanoma): 16 µM
GI50 (NCI-H23 lung): 3.69 µM
TGI (NCI-H23 lung): 11.9 µM
GI50 (EKVX NSCLC): 5.07 µM
TGI (EKVX NSCLC): 12.9 µM
GI50 (SK-MEL-28 melanoma): 6.67 µM
TGI (SK-MEL-28 melanoma): 14 µM
GI50 (OVCAR-5 ovarian): 2.81 µM
TGI (OVCAR-5 ovarian): 9.92 µM
GI50 (786-0 renal): 2.24 µM
TGI (786-0 renal): 8.37 µM
GI50 (PC-3 prostate): 1.94 µM
TGI (PC-3 prostate): 9.38 µM
GI50 (NCI-H460 lung): 2.07 µM
TGI (NCI-H460 lung): 7.44 µM
GI50 (TK-10 renal): 6.43 µM
TGI (TK-10 renal): 13.9 µM
GI50 (RXF 393 renal): 1.42 µM
TGI (RXF 393 renal): 5.4 µM
GI50 (OVCAR-4 ovarian): 2.64 µM
TGI (OVCAR-4 ovarian): 9.42 µM
GI50 (SK-MEL-5 melanoma): 4.46 µM
TGI (SK-MEL-5 melanoma): 10.5 µM
GI50 (NCI/ADR-RES ovarian): 2.46 µM
TGI (NCI/ADR-RES ovarian): 10.6 µM
GI50 (K-562 leukemia): 1.46 µM
TGI (K-562 leukemia): 8.78 µM
GI50 (CCRF-CEM leukemia): 2.12 µM
TGI (CCRF-CEM leukemia): 50 µM
GI50 (T-47D breast): 7 µM
TGI (T-47D breast): 18.8 µM
GI50 (SN12C renal): 2.41 µM
TGI (SN12C renal): 9.15 µM
GI50 (SF-268 CNS): 3.83 µM
TGI (SF-268 CNS): 10.6 µM
GI50 (MCF7 breast): 1.8 µM
TGI (MCF7 breast): 7.93 µM
